# Results from PubChem BioAssay (NCI).
#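 Five compound concentrations were applied to cells in 96-well plates for 48 hours; endpoints were derived by simple linear interpolation of the resulting dose-response curve. Here, GI50 denotes the concentration required for 50% inhibition of growth. TGI: total growth inhibition.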
# How the values were obtained:
# Assay in all cases: growth of human tumour cells (NCI), 48 h
# 786-0 renal = test system: 786-0 renal
# A498 renal = test system: A498 renal
# A549 NSCLC = test system: A549 NSCLC
# ACHN renal = test system: ACHN renal
# BT-549 breast = test system: BT-549 breast
# CAKI-1 renal = test system: CAKI-1 renal
# CCRF-CEM leukemia = test system: CCRF-CEM leukemia
# COLO 205 colon = test system: COLO 205 colon
# DU-145 prostate = test system: DU-145 prostate
# EKVX NSCLC = test system: EKVX NSCLC
# HCC-2998 colon = test system: HCC-2998 colon
# HCT-116 colon = test system: HCT-116 colon
# HCT-15 colon = test system: HCT-15 colon
# HL-60(TB) leukemia = test system: HL-60(TB) leukemia
# HOP-62 NSCLC = test system: HOP-62 NSCLC
# HOP-92 NSCLC = test system: HOP-92 NSCLC
# HS 578T breast = test system: HS 578T breast
# HT29 colon = test system: HT29 colon
# IGROV1 ovarian = test system: IGROV1 ovarian
# K-562 leukemia = test system: K-562 leukemia
# KM12 colon = test system: KM12 colon
# LOX IMVI melanoma = test system: LOX IMVI melanoma
# M14 melanoma = test system: M14 melanoma
# MALME-3M melanoma = test system: MALME-3M melanoma
# MCF7 breast = test system: MCF7 breast
# MDA-MB-231 breast = test system: MDA-MB-231 breast
# MDA-MB-435 = test system: MDA-MB-435
# MOLT-4 leukemia = test system: MOLT-4 leukemia
# NCI-H226 lung = test system: NCI-H226 lung
# NCI-H23 lung = test system: NCI-H23 lung
# NCI-H460 lung = test system: NCI-H460 lung
# NCI-H522 lung = test system: NCI-H522 lung
# NCI/ADR-RES ovarian = test system: NCI/ADR-RES ovarian
# OVCAR-3 ovarian = test system: OVCAR-3 ovarian
# OVCAR-4 ovarian = test system: OVCAR-4 ovarian
# OVCAR-5 ovarian = test system: OVCAR-5 ovarian
# OVCAR-8 ovarian = test system: OVCAR-8 ovarian
# PC-3 prostate = test system: PC-3 prostate
# RPMI-8226 leukemia = test system: RPMI-8226 leukemia
# RXF 393 renal = test system: RXF 393 renal
# SF-268 CNS = test system: SF-268 CNS
# SF-295 CNS = test system: SF-295 CNS
# SF-539 CNS = test system: SF-539 CNS
# SK-MEL-2 melanoma = test system: SK-MEL-2 melanoma
# SK-MEL-28 melanoma = test system: SK-MEL-28 melanoma
# SK-MEL-5 melanoma = test system: SK-MEL-5 melanoma
# SK-OV-3 ovarian = test system: SK-OV-3 ovarian
# SN12C renal = test system: SN12C renal
# SNB-19 CNS = test system: SNB-19 CNS
# SNB-75 CNS = test system: SNB-75 CNS
# SR leukemia = test system: SR leukemia
# SW-620 colon = test system: SW-620 colon
# T-47D breast = test system: T-47D breast
# TK-10 renal = test system: TK-10 renal
# U251 CNS = test system: U251 CNS
# UACC-257 melanoma = test system: UACC-257 melanoma
# UACC-62 melanoma = test system: UACC-62 melanoma
# UO-31 renal = test system: UO-31 renal
structure (smiles),measurement,setting,value
Clc1ccc(/C=C/c2ccc3ccccc3n2)cc1,GI50,786-0 renal,6330 nM
same,TGI,786-0 renal,> 100000 nM
same,GI50,A498 renal,306 nM
same,TGI,A498 renal,> 100000 nM
same,GI50,A549 NSCLC,1750 nM
same,TGI,A549 NSCLC,> 100000 nM
same,GI50,ACHN renal,4820 nM
same,TGI,ACHN renal,> 100000 nM
same,GI50,BT-549 breast,3160 nM
same,TGI,BT-549 breast,> 71800 nM
same,GI50,CAKI-1 renal,2290 nM
same,TGI,CAKI-1 renal,> 57900 nM
same,GI50,CCRF-CEM leukemia,508 nM
same,TGI,CCRF-CEM leukemia,> 100000 nM
same,GI50,COLO 205 colon,1460 nM
same,TGI,COLO 205 colon,6730 nM
same,GI50,DU-145 prostate,2230 nM
same,TGI,DU-145 prostate,5410 nM
same,GI50,EKVX NSCLC,2790 nM
same,TGI,EKVX NSCLC,> 100000 nM
same,GI50,HCC-2998 colon,968 nM
same,TGI,HCC-2998 colon,8410 nM
same,GI50,HCT-116 colon,399 nM
same,TGI,HCT-116 colon,> 100000 nM
same,GI50,HCT-15 colon,2080 nM
same,TGI,HCT-15 colon,> 100000 nM
same,GI50,HL-60(TB) leukemia,268 nM
same,TGI,HL-60(TB) leukemia,828 nM
same,GI50,HOP-62 NSCLC,> 100000 nM
same,TGI,HOP-62 NSCLC,> 100000 nM
same,GI50,HOP-92 NSCLC,2820 nM
same,TGI,HOP-92 NSCLC,> 29900 nM
same,GI50,HS 578T breast,617 nM
same,TGI,HS 578T breast,10500 nM
same,GI50,HT29 colon,2620 nM
same,TGI,HT29 colon,8800 nM
same,GI50,IGROV1 ovarian,716 nM
same,TGI,IGROV1 ovarian,> 80800 nM
same,GI50,K-562 leukemia,439 nM
same,TGI,K-562 leukemia,> 100000 nM
same,GI50,KM12 colon,1420 nM
same,TGI,KM12 colon,20600 nM
same,GI50,LOX IMVI melanoma,2510 nM
same,TGI,LOX IMVI melanoma,> 100000 nM
same,GI50,M14 melanoma,298 nM
same,TGI,M14 melanoma,1010 nM
same,GI50,MALME-3M melanoma,934 nM
same,TGI,MALME-3M melanoma,71800 nM
same,GI50,MCF7 breast,467 nM
same,TGI,MCF7 breast,> 100000 nM
same,GI50,MDA-MB-231 breast,2300 nM
same,TGI,MDA-MB-231 breast,> 100000 nM
same,GI50,MDA-MB-435,226 nM
same,TGI,MDA-MB-435,531 nM
same,GI50,MOLT-4 leukemia,3010 nM
same,TGI,MOLT-4 leukemia,> 100000 nM
same,GI50,NCI-H226 lung,25000 nM
same,TGI,NCI-H226 lung,> 100000 nM
same,GI50,NCI-H23 lung,3080 nM
same,TGI,NCI-H23 lung,> 100000 nM
same,GI50,NCI-H460 lung,1200 nM
same,TGI,NCI-H460 lung,15700 nM
same,GI50,NCI-H522 lung,255 nM
same,TGI,NCI-H522 lung,763 nM
same,GI50,NCI/ADR-RES ovarian,6270 nM
same,TGI,NCI/ADR-RES ovarian,29400 nM
same,GI50,OVCAR-3 ovarian,917 nM
same,TGI,OVCAR-3 ovarian,6730 nM
same,GI50,OVCAR-4 ovarian,> 69800 nM
same,TGI,OVCAR-4 ovarian,> 100000 nM
same,GI50,OVCAR-5 ovarian,4360 nM
same,TGI,OVCAR-5 ovarian,> 100000 nM
same,GI50,OVCAR-8 ovarian,1060 nM
same,TGI,OVCAR-8 ovarian,> 100000 nM
same,GI50,PC-3 prostate,1740 nM
same,TGI,PC-3 prostate,> 100000 nM
same,GI50,RPMI-8226 leukemia,482 nM
same,TGI,RPMI-8226 leukemia,18600 nM
same,GI50,RXF 393 renal,648 nM
same,TGI,RXF 393 renal,> 74700 nM
same,GI50,SF-268 CNS,641 nM
same,TGI,SF-268 CNS,> 88300 nM
same,GI50,SF-295 CNS,1200 nM
same,TGI,SF-295 CNS,6800 nM
same,GI50,SF-539 CNS,428 nM
same,TGI,SF-539 CNS,13800 nM
same,GI50,SK-MEL-2 melanoma,311 nM
same,TGI,SK-MEL-2 melanoma,1240 nM
same,GI50,SK-MEL-28 melanoma,3180 nM
same,TGI,SK-MEL-28 melanoma,> 100000 nM
same,GI50,SK-MEL-5 melanoma,551 nM
same,TGI,SK-MEL-5 melanoma,> 100000 nM
same,GI50,SK-OV-3 ovarian,519 nM
same,TGI,SK-OV-3 ovarian,> 21000 nM
same,GI50,SN12C renal,2060 nM
same,TGI,SN12C renal,> 100000 nM
same,GI50,SNB-19 CNS,1560 nM
same,TGI,SNB-19 CNS,> 100000 nM
same,GI50,SNB-75 CNS,2630 nM
same,TGI,SNB-75 CNS,> 67100 nM
same,GI50,SR leukemia,443 nM
same,TGI,SR leukemia,4120 nM
same,GI50,SW-620 colon,553 nM
same,TGI,SW-620 colon,> 100000 nM
same,GI50,T-47D breast,5160 nM
same,TGI,T-47D breast,> 100000 nM
same,GI50,TK-10 renal,5240 nM
same,TGI,TK-10 renal,> 100000 nM
same,GI50,U251 CNS,441 nM
same,TGI,U251 CNS,> 100000 nM
same,GI50,UACC-257 melanoma,1830 nM
same,TGI,UACC-257 melanoma,> 100000 nM
same,GI50,UACC-62 melanoma,1470 nM
same,TGI,UACC-62 melanoma,> 100000 nM
same,GI50,UO-31 renal,4680 nM
same,TGI,UO-31 renal,> 100000 nM
